Positions count from the first letter of the chain named.
Key:
MLKL [1] = assay: MLKL translocation to the plasma membrane, TSZ-treated HT-29 wt cells; assay type: cell-based, human; conditions: FIG. 6E
Excerpt: (§1) A-B) Dose-dependence of the inhibitory effect of MBA-h1 (A) or MBA-m1M (B) on necroptotic cell death in human (HT-29) and mouse (NIH-3T3) cells. C-D) Effect of MBA-h1 (C) or MBA-m1 (D) on MLKL phosphorylation. E-F) Effect of MBA-h1 (E) or MBA-m1 (F) on MLKL translocation to the plasma membrane. HT-29 (C and E) or NIH-3T3 (D and F) wt cells were TSZ-treated in the presence or not of the inhibitors. NSA was used as a control in C and E. G) Inhibitory effect of MBA-m1 in MLKL ko cells transfected with mMLKL2 or the mutant mMLKL2_I84A_F87A. Cells were transfected with the different variants of MLKL-GFP. The dead cell population was calculated from transfected cells. Individual values from at least three independent experiments are shown. H-I) MBA-m1 ameliorates dermatitis in Tnfr1-KO HoipE-KO mice. H) Representative images of mice before and after 2 weeks' treatment with MBA-m1. I) Severity score of dermatitis assessed after and before treatment with the inhibitor. […] To quantify the sore of region affected, 0 values were assigned to no lesion, and 1 values were assigned when lesions were found in either neck, back, flank or head, being the sum of these elements taken as the final score. To quantify the character of lesions, 0 values were assigned to no lesions, 1 to excoriations one or small punctuate crust, 2 to multiple punctuate crust or coalescing crust, 3 to erosion, ulceration or bleeding. […]

phosphorylated MLKL [2] = assay: MLKL phosphorylation, Western-blot, TSZ-treated HT-29 wt cells; assay type: cell-based, human; conditions: FIG. 6C
Excerpt: as §1

hMLKL1 = biological target: T1, hMLKL1 (Homo sapiens, UniProt Q8NB16); assay: Necroptosis inhibition in HT-29 MLKL ko cells re-expressing hMLKL1; assay type: cell-based; conditions: HT-29 MLKL ko re-expressing hMLKL1
T1 construct: GFP; expressed in transfected cells; host or cells: HT-29 MLKL ko cells
T1 sequence (Q8NB16 1-471): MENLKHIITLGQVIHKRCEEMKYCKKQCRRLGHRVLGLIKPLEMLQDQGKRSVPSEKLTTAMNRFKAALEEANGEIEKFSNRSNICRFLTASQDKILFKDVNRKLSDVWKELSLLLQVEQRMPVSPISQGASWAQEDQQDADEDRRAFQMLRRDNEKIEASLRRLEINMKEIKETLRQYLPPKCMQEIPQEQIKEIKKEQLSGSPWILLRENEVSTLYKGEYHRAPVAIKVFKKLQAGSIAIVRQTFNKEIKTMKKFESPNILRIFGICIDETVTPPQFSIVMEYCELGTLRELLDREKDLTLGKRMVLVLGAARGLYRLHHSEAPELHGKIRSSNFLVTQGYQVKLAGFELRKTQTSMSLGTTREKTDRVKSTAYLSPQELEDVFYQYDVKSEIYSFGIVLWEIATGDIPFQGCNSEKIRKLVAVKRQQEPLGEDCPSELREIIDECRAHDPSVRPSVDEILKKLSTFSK
Excerpt: The species-specificity was expected considering the large difference in the He/groove interactions between mouse and human MLKL (FIGS. 3 and 4).

HT-29 = assay: Necroptosis inhibition assay, TSZ-treated human HT-29 cells; assay type: cell-based
Excerpt: (§2) A-B) Dose-dependence of the inhibitory effect of MBA-h1 (A) or MBA-m1M (B) on necroptotic cell death in human (HT-29) and mouse (NIH-3T3) cells. C-D) Effect of MBA-h1 (C) or MBA-m1 (D) on MLKL phosphorylation. E-F) Effect of MBA-h1 (E) or MBA-m1 (F) on MLKL translocation to the plasma membrane. HT-29 (C and E) or NIH-3T3 (D and F) wt cells were TSZ-treated in the presence or not of the inhibitors. NSA was used as a control in C and E. G) Inhibitory effect of MBA-m1 in MLKL ko cells transfected with mMLKL2 or the mutant mMLKL2_I84A_F87A. Cells were transfected with the different variants of MLKL-GFP. The dead cell population was calculated from transfected cells. Individual values from at least three independent experiments are shown. H-I) MBA-m1 ameliorates dermatitis in Tnfr1-KO HoipE-KO mice. H) Representative images of mice before and after 2 weeks' treatment with MBA-m1. I) Severity score of dermatitis assessed after and before treatment with the inhibitor. Tnfr1-KO HoipE-KO (n=3). To quantify the sore of region affected, 0 values were assigned to no lesion, and 1 values were assigned when lesions were found in either neck, back, flank or head, being the sum of these elements taken as the final score. To quantify the character of lesions, 0 values were assigned to no lesions, 1 to excoriations one or small punctuate crust, 2 to multiple punctuate crust or coalescing crust, 3 to erosion, ulceration or bleeding. Data are presented as mean values±s.e.m.
(§3) To evaluate the necroptotic potential of the different mMLKL isoforms, each of the three isoforms were re-expressed in NIH-3T3 MLKL knock out (ko) cells following induction of necroptosis with a mixture of TNF, a Smac mimetic compound (LCL-161) and the pan-caspase inhibitor zVAD (TSZ), which is the most commonly used necroptosis-inducing cocktail. The inventors quantified cell death by flow cytometry (FIG. 1B) and confocal microscopy (FIG. 1C) using propidium iodide (PI) as a marker of irreversible plasma membrane disruption. As expected, mMLKL3 was intrinsically active, on account of its lack of the psK domain. […]

mMLKL2_I84A_F87A = biological target: T2, mMLKL2_I84A_F87A (Mus musculus, UniProt Q9D2Y4, F87A/I84A); assay: Cell death assay in MLKL ko cells transfected with mutant mMLKL2_I84A_F87A; assay type: cell-based; conditions: FIG. 6G
T2 construct: GFP; expressed in transfected cells
T2 sequence (Q9D2Y4 1-464 isoform Q9D2Y4-2 I84A/F87A): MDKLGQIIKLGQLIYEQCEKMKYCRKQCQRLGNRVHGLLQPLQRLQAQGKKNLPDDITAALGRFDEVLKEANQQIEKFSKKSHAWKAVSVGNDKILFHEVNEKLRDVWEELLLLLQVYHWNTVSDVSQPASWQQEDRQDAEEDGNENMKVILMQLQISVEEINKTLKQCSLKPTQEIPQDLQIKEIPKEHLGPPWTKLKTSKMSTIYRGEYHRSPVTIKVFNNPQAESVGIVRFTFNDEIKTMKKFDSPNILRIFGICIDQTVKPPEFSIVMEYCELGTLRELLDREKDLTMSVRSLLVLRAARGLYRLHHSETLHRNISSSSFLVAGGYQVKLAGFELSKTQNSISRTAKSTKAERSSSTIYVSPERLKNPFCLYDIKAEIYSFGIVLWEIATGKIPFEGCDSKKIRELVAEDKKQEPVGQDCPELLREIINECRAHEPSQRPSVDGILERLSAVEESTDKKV
Excerpt: as §1

Tnfr1KO;HoipEKO mice = assay: Necroptosis-driven dermatitis in Tnfr1KO;HoipEKO mice; assay type: in vivo, mouse; conditions: treated daily for three weeks from 30 to 40 days of age, end of treatment
Excerpt: as §2, with “H) Representative images of mice before and after 2 weeks' treatment with MBA-m1.” left out, “values±s.e.m. […]” for “values±s.e.m.”

NIH-3T3 WT cells = assay: Necroptosis inhibition assay, TSZ-treated mouse NIH-3T3 WT cells; assay type: cell-based
Excerpt: as §2, §3

phosphorylated MLKL [3] = assay: MLKL phosphorylation, Western-blot, TSZ-treated NIH-3T3 wt cells; assay type: cell-based, mouse; conditions: FIG. 6D
Excerpt: as §1

mMLKL2 = biological target: T3, mMLKL2 (Mus musculus, UniProt Q9D2Y4); assay: Necroptosis inhibition in NIH MLKL ko cells containing mMLKL2; assay type: cell-based
T3 construct: GFP; expressed in transfected cells; host or cells: NIH-3T3 MLKL ko cells
T3 sequence (Q9D2Y4 1-464 isoform Q9D2Y4-2): T2 sequence (Q9D2Y4 1-464 isoform Q9D2Y4-2 I84A/F87A) with A84I, A87F
Excerpt: as §1

MLKL [4] = assay: MLKL translocation to the plasma membrane, TSZ-treated NIH-3T3 wt cells; assay type: cell-based, mouse; conditions: FIG. 6F
Excerpt: as §1

Compound	effect on MLKL translocation to the plasma membrane (MLKL [1])	effect on MLKL phosphorylation (phosphorylated MLKL [2])	inhibition of necroptosis (hMLKL1)	concentrations at which inhibitory activity was observed (HT-29; HT-29 cells, FIG. 6A)	toxicity (HT-29; at inhibitory concentrations, FIG. 6A)	inhibition of necroptosis (HT-29; human HT-29 cells, dose-dependent (FIG. 6A))	inhibition of cell death mediated by mutant mMLKL2_I84A_F87A (mMLKL2_I84A_F87A)	dermatitis, severity score of skin lesions (Tnfr1KO;HoipEKO mice)	concentrations at which necroptosis is inhibited (NIH-3T3 WT cells; NIH-3T3 cells, FIG. 6B, compared with MBA-h1 (lower than 10 μM))	concentrations at which toxicity was presented (NIH-3T3 WT cells; higher concentrations, FIG. 6B) [µM]	inhibition of necroptosis (NIH-3T3 WT cells; mouse NIH-3T3 WT cells, dose-dependent (FIG. 6B))	effect on MLKL phosphorylation (phosphorylated MLKL [3])	inhibition of necroptosis (mMLKL2)	effect on MLKL translocation to the plasma membrane (MLKL [4])
CN1CCN(c2ccc(-c3cccc(NC(=O)c4ccc5ccccc5c4)c3)nn2)CC1 [MBA-h1, N-[3-[6-(4-methylpiperazin-1-yl)pyridazin-3-yl]phenyl]naphthalene-2-carboxamide]	potently interfered with MLKL translocation to the plasma membrane	none of the compounds blocked the phosphorylation of MLKL	inhibited necroptosis	lower than 10 μM	without evidence of toxicity	specifically inhibited necroptosis	–	–	–	–	–	–	–	–
COc1ccc2nc(C)cc(Nc3ccc(Oc4ccc5ccccc5c4)c(Cl)c3)c2c1 [MBA-m1, N-(3-chloro-4-naphthalen-2-yloxyphenyl)-6-methoxy-2-methylquinolin-4-amine]	–	–	–	–	–	–	inert to inhibition	significantly ameliorated dermatitis	able to inhibit necroptosis at similar concentrations	12.5 to 50	specifically inhibited necroptosis	none of the compounds blocked the phosphorylation of MLKL	had the same effect	potently interfered with MLKL translocation to the plasma membrane
COc1nccnc1NS(=O)(=O)c1ccc(NC(=O)/C=C/c2ccc([N+](=O)[O-])s2)cc1 [NSA, reference compound]	interfered with MLKL translocation to the plasma membrane	–	–	–	–	–	–	–	–	–	–	–	–	–

— patent US20230181578A1, “MODULATION OF MIXED LINEAGE KINASE DOMAIN-LIKE PROTEIN SIGNALING” (EBERHARD KARLS UNIVERSITÄT TÜBINGEN, priority 2020, published 2023)
